# Experiments:
# [1] = pampa, 5 h
# [2] = Stability of compound in human plasma assessed as half life at 20 uM incubated for 3 hrs by LC-MS (SIM) assay; type: ADME, cell-free
# in vitro = conditions: CD1, mouse
# [3] = human, plasma, 3 h, 20 µM
smiles,measurement,setting,value
CNC(=O)c1cnn(-c2cccc(NS(=O)(=O)c3ccccc3)c2)c1C1CC1,permeability,[1],< 2%
CCN(CC)CCOC(=O)c1ccc(N)cc1 [PROCAINE],half-life at 20 µM,[2],2 min
O=C(O)CN(c1cccc(-n2ncc(C(=O)O)c2C2CC2)c1)S(=O)(=O)c1ccccc1,"half-life at 4 h, 10 µM",in vitro; liver microsomes,4 h
same,permeability,[1],< 2%
CCCCC1CCCN1C(=O)[C@@H]1CCC[C@H](c2cccc(-n3ncc(C(=O)O)c3C3CC3)c2)C1 (some centres not stated),Stabilty,[3],Stable
O=C(O)c1cnn(-c2cccc(NS(=O)(=O)c3ccccc3)c2)c1C1CC1,"half-life at 4 h, 10 µM",in vitro; liver microsomes,4 h
same,permeability,[1],< 2%
same,Stabilty,[3],Stable
COc1cccc(S(=O)(=O)N(CC(=O)O)c2cccc(-n3ncc(C(=O)O)c3[C@H]3C[C@@H]3c3ccccc3)c2)c1 (relative stereo),"half-life at 4 h, 10 µM",in vitro; liver microsomes,4 h
same,permeability,[1],< 2%
same,Stabilty,[3],Stable
CC(C)NCC(O)COc1cccc2ccccc12 (configuration not stated) [PROPRANOLOL],"half-life at 4 h, 10 µM",in vitro; microsomes,0.617 h
